# According to patent US6979686B1, “Substituted pyrazoles as p38 kinase inhibitors” (Pharmacia Corporation, priority 2001, dated 2005):
# Target: T1, human p38 kinase alpha (Homo sapiens, UniProt Q16539)
# T1 construct: GST (N, cleaved yes); made in house; host or cells: E. coli DH10B
# Test: p38 kinase in vitro assay, phosphorylation of biotinylated PHAS-I with 32P-ATP
# Format: biochemical
# Details: @ 10.0 uM
# T1 sequence (Q16539 whole entry): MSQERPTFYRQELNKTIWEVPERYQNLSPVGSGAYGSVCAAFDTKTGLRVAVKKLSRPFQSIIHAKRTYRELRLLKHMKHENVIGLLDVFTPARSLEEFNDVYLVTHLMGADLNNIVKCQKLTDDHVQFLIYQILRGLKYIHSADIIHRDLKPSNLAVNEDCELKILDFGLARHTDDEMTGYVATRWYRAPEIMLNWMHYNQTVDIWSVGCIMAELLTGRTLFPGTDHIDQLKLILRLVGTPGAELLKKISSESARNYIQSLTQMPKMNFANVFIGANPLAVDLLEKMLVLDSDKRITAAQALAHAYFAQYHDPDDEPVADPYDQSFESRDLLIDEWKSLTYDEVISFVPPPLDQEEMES
row,SMILES,"P38 alpha kinase IC50, uM or % inhib @ conc. (uM): % inhib [% @]"
1,Cc1c(-c2ccncc2)c(-c2ccc(F)cc2)nn1CC(=O)Nc1ccc(CCC(=O)c2cccnc2)cc1 [Example B-2445],94.0
2,Cc1c(-c2ccncc2)c(-c2ccc(F)cc2)nn1CC(=O)Nc1ccc(S(=O)(=O)C(F)F)cc1 [Example B-2446],90.0
3,CCCCCSc1cccc(NC(=O)Cn2nc(-c3ccc(F)cc3)c(-c3ccncc3)c2C)c1 [Example B-2447],94.0
4,Cc1c(-c2ccncc2)c(-c2ccc(F)cc2)nn1CC(=O)Nc1ccccc1OC(F)(F)F [Example B-2453],91.0
5,Cc1c(-c2ccncc2)c(-c2ccc(F)cc2)nn1CC(=O)Nc1ccccc1Sc1ccc([N+](=O)[O-])cn1 [Example B-2457],90.0
6,CCOC(=O)COc1cccc(NC(=O)Cn2nc(-c3ccc(F)cc3)c(-c3ccncc3)c2C)c1 [Example B-2458],83.0

# Same assay, conditions: in vitro P38-alpha kinase inhibition; read-out: P38 alpha kinase IC50
row,SMILES,IC50 [µM]
1,Cc1ccc(F)cc1S(=O)(=O)NC(C)c1[nH]nc(-c2ccc(F)cc2)c1-c1ccncc1 (stereo not shown) [Example B-0451],0.071
2,CNC(=O)NC(C)c1[nH]nc(-c2ccc(F)cc2)c1-c1ccncc1 (stereo not shown) [Example B-0585],0.83

# Test system: TNF-α, U937 human histiocytic lymphoma cell line
# Test: LPS stimulation of TNF production by U937 cells
# Format: cell-based
# Details: @ 10.0 uM; TNF production, U937 cells stimulated with LPS
# Summary of the method: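 U937 cells differentiated 24 h with 20 ng/ml PMA, rested 24-48 h, used at 2 million cells/ml. Compounds in 0.1% DMSO final; LPS (E. coli, 100 ng/ml final) stimulation for 4 h at 37° C. Released TNF-α measured by ELISA; IC50 (μM).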
row,SMILES,"U937 Cell IC50, uM or % inhib @ conc. (uM): % inhib [% @]"
1,Cc1c(-c2ccncc2)c(-c2ccc(F)cc2)nn1CC(=O)Nc1ccc(CCC(=O)c2cccnc2)cc1 [Example B-2445],15.0
2,Cc1c(-c2ccncc2)c(-c2ccc(F)cc2)nn1CC(=O)Nc1ccc(S(=O)(=O)C(F)F)cc1 [Example B-2446],28.0
3,Cc1c(-c2ccncc2)c(-c2ccc(F)cc2)nn1CC(=O)Nc1ccccc1Sc1ccc([N+](=O)[O-])cn1 [Example B-2457],18.0
4,CCOC(=O)COc1cccc(NC(=O)Cn2nc(-c3ccc(F)cc3)c(-c3ccncc3)c2C)c1 [Example B-2458],36.0

# Same assay, conditions: TNF production, U937 cells stimulated with LPS; read-out: U937 Cell IC50, uM or % inhib @ conc. (uM): IC50
row,SMILES,IC50 [µM]
1,CCCCCSc1cccc(NC(=O)Cn2nc(-c3ccc(F)cc3)c(-c3ccncc3)c2C)c1 [Example B-2447],> 10
2,Cc1c(-c2ccncc2)c(-c2ccc(F)cc2)nn1CC(=O)Nc1ccccc1OC(F)(F)F [Example B-2453],> 10

# Test system: TNF alpha, BALB/c mice injected with LPS
# Test: Mouse model of LPS-induced TNF alpha production
# Format: in vivo
# Details: Mus musculus; 30 mpk oral gavage, −5 h before LPS challenge; read-out: Mouse LPS Model % TNF inhib @ dose @ predose time
# Experimental: Mouse Model of LPS-induced TNF Alpha Production:
# TNF alpha was induced in 10-12 week old BALB/c female mice by tail vein injection with 100 ng lipopolysaccharide (from S. Typhosa) in 0.2 ml saline. One hour later mice were bled from the retroorbital sinus and TNF concentrations in serum from clotted blood were quantified by ELISA.
# Efficacy was determined at each time point as percent inhibition of serum TNF levels relative to LPS injected mice that received vehicle only.
# In vivo assessment of the ability of the compounds to inhibit LPS-stimulated TNP release in the mouse is shown in the column identified as: • “Mouse LPS Model, % TNF inhib @ dose @ predose time” wherein in the dose is milligram per kilogram (mpk) administered by oral gavage and the predose time indicates the number of hours before LPS challenge when the compound is administered.
row,SMILES,inhibition in vivo at 30 mg/kg [%]
1,Cc1ccc(F)cc1S(=O)(=O)NC(C)c1[nH]nc(-c2ccc(F)cc2)c1-c1ccncc1 (stereo not shown) [Example B-0451],42

# Same assay, conditions: Mus musculus; 30 mpk oral gavage, −6 h before LPS challenge; read-out: Mouse LPS Model % TNF inhib @ dose @ predose time
row,SMILES,inhibition in vivo at 30 mg/kg [%]
1,CNC(=O)NC(C)c1[nH]nc(-c2ccc(F)cc2)c1-c1ccncc1 (stereo not shown) [Example B-0585],50

# Same assay, conditions: Table 6; mouse LPS, 1 h before LPS, 30 mpk, oral gavage; read-out: mLPS 1 h, 30 mpk percent inhibition
row,SMILES,inhibition in vivo at 30 mg/kg [%]
1,"Cc1cccc(-c2nn(C)cc2-c2ccnc(C)c2)c1 [Example A-235, 2-methyl-4-[1-methyl-3 (or 5)-(3-methylphenyl)-1H-pyrazol-4-yl]pyridine]",56

# Same assay, conditions: Table 6; mouse LPS, head '8 h', dose 10, oral gavage
row,SMILES,mLPS 8 h percent inhibition [%]
1,"Cn1cc(-c2ccncc2)c(-c2ccc(F)cc2)n1 [Example A-212, 4-[3-(4-fluorophenyl)-1-methyl-1H-pyrazol-4-yl]pyridine]",20

# Same assay, conditions: Table 6; mouse LPS, head '8 h', dose 30, oral gavage
row,SMILES,mLPS 8 h percent inhibition [%]
1,"N#Cc1cc(-c2c[nH]nc2-c2ccc(F)cc2)ccn1 [Example A-215, 4-[3-(4-fluorophenyl)-1H-pyrazol-4-yl]-2-pyridinecarbonitrile]",38
2,"Fc1ccc(-c2nn(CCN3CCOCC3)cc2-c2ccncc2)cc1 [Example A-216, 4-[2-[3-(4-fluorophenyl)-4-(4-pyridinyl)-1H-pyrazol-1-yl]ethyl]morpholine]",27
3,"Fc1ccc(-c2n[nH]c(NCCN3CCOCC3)c2-c2ccncc2)cc1 [Example A-218, N-[5-(4-fluorophenyl)-4-(4-pyridinyl)-1H-pyrazol-3-yl]-4-morpholineethanamine]",18
4,"c1cc(-c2c[nH]nc2-c2ccc3c(c2)OCO3)ccn1 [Example A-228, 4-[3-(1,3-benzodioxol-5-yl)-1H-pyrazol-4-yl]pyridine]",32
5,"Cn1cc(-c2ccncc2)c(-c2ccc3c(c2)OCO3)n1 [Example A-231, 4-[3-(1,3-benzodioxol-5-y)-1-methyl-1H-pyrazol-4-yl]pyridine]",86
6,"Fc1ccc(-c2n[nH]cc2-c2ccncc2)cc1F [Example A-239, 4-[3-(3,4-difluorophenyl)-1H-pyrazol-4-yl]pyridine]",51
7,Fc1cc(-c2c[nH]nc2-c2ccc(Cl)cc2)ccn1 [Example A-240],78
8,"Brc1ccc(-c2n[nH]cc2-c2ccncc2)cc1 [Example A-241, 4-[3-(4-bromophenyl)-1H-pyrazol-4-yl]pyridine]",79
9,"Cn1cc(-c2ccncc2)c(-c2ccc(F)c(F)c2)n1 [Example A-242, 4-[3-(3,4-difluorophenyl)-1-methyl-1H-pyrazol-4-yl]pyridine]",95
10,"Fc1ccc(-c2n[nH]cc2-c2ccnc(F)c2)cc1 [Example A-249, 2-fluoro-4-[3-(4-fluorophenyl)-1H-pyrazol-4-yl]pyridine]",73
11,"Cn1cc(-c2ccncc2)c(-c2ccc(C(F)(F)F)cc2)n1 [Example A-252, 4-[1-methyl-3-[4-(trifluoromethyl)phenyl]-1H-pyrazol-4-yl]pyridine]",48
12,"Cn1cc(-c2ccnc(F)c2)c(-c2ccc(F)c(F)c2)n1 [Example A-260, 4-[3-(3,4-difluorophenyl)-1-methyl-1H-pyrazol-4-yl]-2-fluoropyridine]",47
13,"CN(C)CCn1cc(-c2ccncc2)c(-c2ccc(F)cc2)n1 [Example A-261, 3-(4-fluorophenyl)-N,N-dimethyl-4-(4-pyridinyl)-1H-pyrazole-1-ethanamine]",48
14,"CN(C)CCn1cc(-c2ccnc(NCc3ccc(F)cc3)c2)c(-c2ccc(F)cc2)n1 [Example A-274, 4-[1-[2-(dimethylamino)ethyl]-3-(4-fluorophenyl)-1H-pyrazol-4-yl]-N-[[4-fluorophenyl)methyl]-2-pyridinamine]",21
15,"Fc1ccc(-c2n[nH]cc2-c2ccnc(NC3CCNCC3)c2)cc1 [Example A-277, 4-[3-(4-fluorophenyl)-1H-pyrazol-4-yl]-N-4-piperadinyl-2-pyridinamine]",33
16,"CCN(CC)CCn1cc(-c2ccnc(F)c2)c(-c2ccc(F)cc2)n1 [Example A-278, N,N-diethyl-3-(4-fluorophenyl)-4-(2-fluoro-4-pyridinyl)-1H-pyrazole-1-ethanamine]",62
17,"CCN(CC)CCn1cc(-c2ccnc(NCc3ccc(F)cc3)c2)c(-c2ccc(F)cc2)n1 [Example A-279, 4-[1-[2-(diethylamino)ethyl]-3-(4-fluorophenyl)-1H-pyrazol-4-yl]-N-[(4-fluorophenyl)methyl]-2-pyridinamine]",64
18,OCCNc1cc(-c2c[nH]nc2-c2ccc(F)cc2)ccn1 [Example A-280],15
19,"Cn1cc(-c2ccnc(NCCO)c2)c(-c2ccc(F)cc2)n1 [Example A-281, 2-[[4-[3-(4-fluorophenyl)-1-methyl-1H-pyrazol-4-yl]-2-pyridinyl]amino]ethanol]",22
20,"OCCCNc1cc(-c2c[nH]nc2-c2ccc(F)cc2)ccn1 [Example A-282, 3-[[4-(3-(4-fluorophenyl)-1H-pyrazol-4-yl]-2-pyridinyl]amino]-1-propanol]",30
21,"Fc1ccc(-c2n[nH]c(NCCCN3CCOCC3)c2-c2ccncc2)cc1 [Example A-286, N-[5-(4-fluorophenyl)-4-(4-pyridinyl)-1H-pyrazol-3-yl]-4-morpholinepropanamine]",29
22,"CN(C)CCCNc1[nH]nc(-c2ccc(F)cc2)c1-c1ccncc1 [Example A-287, N′-[5-(4-fluorophenyl)-4-(4-pyridinyl)-1H-pyrazol-3-yl]-N,N-dimethyl-1,3-propanediamine]",−24
23,"C#CCNc1[nH]nc(-c2ccc(F)cc2)c1-c1ccncc1 [Example A-288, 5-(4-fluorophenyl)-N-2-propynyl-4-(4-pyridinyl)-1H-pyrazol-3-amine]",40
24,"OCCn1ncc(-c2ccnc(NCc3ccc(F)cc3)c2)c1-c1ccc(F)cc1 [Example A-290, 5-(4-fluorophenyl)-4-[2-[[(4-fluorophenyl)methyl]amino]-4-pyridinyl]-1H-pyrazole-1-ethanol]",4
25,Fc1ccc(-c2n[nH]cc2-c2ccnc3ccccc23)cc1 [Example A-291],36
26,"C#CCn1cc(-c2ccncc2)c(-c2ccc(F)cc2)n1 [Example A-294, 4-[3-(4-fluorophenyl)-1-(2-propynyl)-1H-pyrazol-4-yl]pyridine]",61
27,"C#CCn1ncc(-c2ccncc2)c1-c1ccc(F)cc1 [Example A-295, 4-[5-(4-fluorophenyl)-1-(2-propynyl)-1H-pyrazol-4-yl]pyridine]",94
28,"Clc1ccc(-c2n[nH]cc2-c2ccncc2)cc1Cl [Example A-297, 4-[3-(3,4-dichlorophenyl)-1H-pyrazol-4-yl]pyridine]",89

# Same assay, conditions: Table 6; mouse LPS, head '8 h', dose not given, oral gavage
row,SMILES,mLPS 8 h percent inhibition [%]
1,"Cn1cc(-c2ccncc2)c(-c2cccc(F)c2)n1 [Example A-229, 4-[3-(3-fluorophenyl)-1-methyl-1H-pyrazol-4-yl]pyridine]",76
2,"Cn1cc(-c2ccncc2)c(-c2ccc(I)cc2)n1 [Example A-251, 4-[3-(4-iodophenyl)-1-methyl-1H-pyrazol-4-yl]pyridine]",32
3,"CCN(CC)CCn1cc(-c2ccncc2)c(-c2ccc(F)cc2)n1 [Example A-284, N,N-diethyl-3-(4-fluorophenyl)-4-(4-pyridinyl)-1H-pyrazole-1-ethanamine]",−1
